Assay results reported in PMC8231342, “Potency of bisresorcinol from Heliciopsis terminalis on skin aging: in vitro bioactivities and molecular interactions” (PeerJ, 2021).
Where “and” joins values, the source holds several entries; their conditions need not be identical. Equal entries are not always repeated. Where two headings read alike, the source gives them in different places. Values belong to the compound of their own block, whether it stands above or below them.

How the values were obtained:
Type in all cases: biochemical
[1] = system: Collagenase from Clostridium histolyticum (EC.3.4.24.3); assay: Collagenase inhibition assay (fluorogenic peptide substrate)
Description: The recent anti-collagenase assay was modified from that previously described by [Widyowati et al. (2016)]. In brief, 50 mmol L^−1 tricine buffer pH 7.5 supplemented with 400 mmol L^−1 NaCl and 10 mmol L^−1 CaCl2 was used as the buffering diluent. Collagenase from Clostridium histolyticum (EC.3.4.24.3) was dissolved in the buffer to a concentration of 1 mg L^−1. The enzyme substrate, MOCAc-PRO-Leu-Gly-Leu-A2pr (Dnp)-Ala-Arg-NH2, was prior dissolved in DMSO and subsequently diluted in the buffer to a concentration of 1 mmol L^−1. A sample dissolved in DMSO was diluted to different concentrations by using the buffer. A 2-µl sample solution was incubated with 100 µl enzyme solution at 37 °C for 10 min. Then, a 50-µl substrate was added and thoroughly mixed. Fluorescence emission (F) at 405 nm was immediately recorded and continually monitored for 30 min using a wavelength of 320 nm for excitation. Caffeic acid was used as a position control (Fig. 1). Negative control was performed with water. The percent inhibition (%) was calculated from the equation below:
%Inhibition={1–(Fsam,30–Fsam,0)÷(Fcont,30–Fcont,0)}×100.

[2] = target: porcine pancreatic elastase (EC.3.4.21.36) (Sus scrofa, UniProt P00772); assay: Elastase inhibition assay (SANA substrate)
Description: The assay according to [Abhijit & Manjushree (2010)] was applied with some modifications. Briefly, the buffer system was 0.2 mM Tris-HCl buffer (pH 8.0). A solution of 1 µg mL^−1 porcine pancreatic elastase (EC.3.4.21.36) was prepared in sterile water. The enzyme substrate, N-Succinyl-Ala-Ala-Ala-p-nitroanilide (SANA), was dissolved in the buffer to a concentration of 80 mmol L^−1. A sample dissolved in DMSO was diluted to various concentrations by using the buffer. A 100-µl sample solution was mixed with 50 µl enzyme solution and incubated for 15 min. After that 50 µl of the enzyme substrate solution was added and thoroughly mixed. The OD410 was measured immediately (0 min) and after incubation overnight (o/n) at 37 °C by using a microplate reader. Ursolic acid was used as a positive control (Fig. 1), and water was used as a negative control. The percentage inhibition (%) was calculated by the following equation:
%Inhibition={1–[(Asam,o/n–Asam,0)÷(Acont,o/n–Acont,0)]}×100.

[3] = target: Mushroom tyrosinase (EC.1.14.18.1) (Agaricus bisporus, UniProt C7FF04); assay: Tyrosinase inhibition assay (L-tyrosine substrate); settings: for inhibition at 10 µg/mL: conc 10 ug/ml
Description: In brief, the assay was carried out in 0.05 mol L^−1 phosphate buffer pH 6.8. Mushroom tyrosinase (EC.1.14.18.1) was dissolved in the buffer to a concentration of 100 units mL^−1. L-tyrosine, an enzyme substrate, was prepared to a concentration of 0.25 mg mL^−1 in the buffer. […] Into a well of 96-well plates, 10 µl sample and 40 µl L-tyrosine solution were mixed and incubated for 10 min at room temperature. After that 50 µl enzyme solution was inoculated and mixed thoroughly. The reaction was stopped afterward by incubation on ice for 1 min. […] The percentage inhibition (%) was calculated by the equation as follows:
%Inhibition={1–(Asam,10–Asam,0)÷(Acont,10–Acont,0)}×100.

[4] = individual replicates, read-out: ic50 collagenase, N1-N3
[5] = mean ± SEM, triplicate, read-out: IC50 collagenase inhibition
[6] = individual replicates, read-out: % inhibition elastase, replicates 1-3
[7] = read-out: % inhibition elastase, ave
[8] = individual replicates, read-out: ic50 elastase, N1-N3 (converted)
[9] = mean ± SEM, triplicate, read-out: IC50 elastase inhibition
[10] = individual replicates, read-out: % inhibition tyrosinase, replicates 1-3
[11] = read-out: % inhibition tyrosinase, ave

Chain of Mushroom tyrosinase (EC.1.14.18.1) (C7FF04 2-392): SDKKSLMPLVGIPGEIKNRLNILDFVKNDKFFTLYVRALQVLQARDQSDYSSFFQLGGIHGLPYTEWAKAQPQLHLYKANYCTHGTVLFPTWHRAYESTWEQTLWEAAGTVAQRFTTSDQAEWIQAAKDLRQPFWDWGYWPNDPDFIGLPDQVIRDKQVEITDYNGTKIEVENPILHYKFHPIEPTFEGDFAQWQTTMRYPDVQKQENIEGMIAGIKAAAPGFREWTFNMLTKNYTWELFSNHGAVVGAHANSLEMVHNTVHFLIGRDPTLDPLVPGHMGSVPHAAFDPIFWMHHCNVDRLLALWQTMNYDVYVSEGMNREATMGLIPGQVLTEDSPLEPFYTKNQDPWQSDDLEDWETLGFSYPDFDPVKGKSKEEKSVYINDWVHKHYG
Chain of porcine pancreatic elastase (EC.3.4.21.36) (P00772 27-266): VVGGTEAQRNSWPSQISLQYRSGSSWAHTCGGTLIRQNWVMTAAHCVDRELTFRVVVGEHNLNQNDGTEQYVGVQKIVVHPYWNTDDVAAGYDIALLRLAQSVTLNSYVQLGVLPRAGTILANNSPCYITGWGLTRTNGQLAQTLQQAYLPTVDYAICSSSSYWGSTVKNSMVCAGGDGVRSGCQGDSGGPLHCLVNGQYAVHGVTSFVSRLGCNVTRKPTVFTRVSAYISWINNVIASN

SMILES: Oc1cc(O)cc(CCCCCCCC=CCCCCCCCc2cc(O)cc(O)c2)c1 [Bisresorcinol, (8′Z)-3,5-dihydroxy-1-[16′-(3″,5″-dihydroxyphenyl)-8′-hexadecen-1′-yl]benzene]
% inhibition collagenase, ave ([1]; 56 uM): 0.0%
% inhibition collagenase, ave ([1]; 113 uM): 33.0%
% inhibition collagenase, ave ([1]; 226 uM): 81.31% and 81.3%
ic50 collagenase, ave ([1]; average of N1-N3): 69.5 µg/mL
% inhibition collagenase, ave ([1]; conc 25 ug/ml): 0.00%
% inhibition collagenase, N1-N3 ([1]; conc 25 ug/ml, individual replicates): 0.00% and 0% (2×)
% inhibition collagenase, ave ([1]; conc 50 ug/ml): 32.97%
% inhibition collagenase, N1-N3 ([1]; conc 50 ug/ml, individual replicates): 38.51% and 27.91% and 32.48%
% inhibition collagenase, ave ([1]; conc 100 ug/ml): 81.31%
% inhibition collagenase, N1-N3 ([1]; conc 100 ug/ml, individual replicates): 82.28% and 81.54% and 80.12%
ic50 collagenase, N1-N3 ([1]; individual replicates): 70.18 µg/mL and 67.47 µg/mL and 70.79 µg/mL
IC50 [1, 4]: 158 µM and 152 µM and 160 µM
IC50 [1, 5]: 157 ± 2.3 µM
inhibition at 23 µM ([2]; 23 uM, read-out: % inhibition elastase, ave): 20.8%
inhibition at 34 µM [2, 6]: 46.5%
inhibition at 34 µM [2, 7]: 34.7%
inhibition at 45 µM [2, 6]: 99.6%
inhibition at 45 µM [2, 7]: 99.7%
inhibition at 50 µM ([2]; at 50 µmol L^−1, read-out: maximum inhibition of elastase): 100%
IC50 ([2]; average of N1-N3, read-out: ic50 elastase, ave (converted)): 33.4 µM
% inhibition elastase, N1-N3 ([2]; conc 10 ug/ml, individual replicates): 30.14% and 20.28% and 11.87%
inhibition at 10 µg/mL ([2]; conc 10 ug/ml, read-out: % inhibition elastase, ave): 20.8%
% inhibition elastase, N1-N3 ([2]; conc 15 ug/ml, individual replicates): 30.89% and 26.77%
inhibition at 15 µg/mL ([2]; conc 15 ug/ml, individual replicates, read-out: % inhibition elastase, N1-N3): 46.5%
inhibition at 15 µg/mL ([2]; conc 15 ug/ml, read-out: % inhibition elastase, ave): 34.7%
% inhibition elastase, N1-N3 ([2]; conc 20 ug/ml, individual replicates): 99.58% and 99.76%
inhibition at 20 µg/mL ([2]; conc 20 ug/ml, individual replicates, read-out: % inhibition elastase, N1-N3): 99.6%
inhibition at 20 µg/mL ([2]; conc 20 ug/ml, read-out: % inhibition elastase, ave): 99.7%
IC50 [2, 8]: 35 µM and 31.2 µM and 34 µM and 34.8 µM and 31 µM and 33.8 µM
IC50 [2, 9]: 33.2 ± 1.1 µM
inhibition at 10 µM [3, 10]: 52.4%
inhibition at 10 µM [3, 11]: 44.4%
inhibition at 28 µM [3, 10]: 81.8%
inhibition at 28 µM [3, 11]: 78.5%
inhibition at 30 µM ([3]; 30 uM, individual replicates, read-out: % inhibition tyrosinase, replicates 1-3): 81.8%
inhibition at 30 µM ([3]; 30 uM, read-out: % inhibition tyrosinase, ave): 78.5%
inhibition at 34 µM [3, 10]: 86.3%
inhibition at 34 µM [3, 11]: 84.3%
inhibition at 40 µM ([3]; 40 uM, individual replicates, read-out: % inhibition tyrosinase, replicates 1-3): 119%
inhibition at 40 µM ([3]; 40 uM, read-out: % inhibition tyrosinase, ave): 100%
inhibition at 50 µM ([3]; 50 uM, individual replicates, read-out: % inhibition tyrosinase, replicates 1-3): 138%
inhibition at 50 µM ([3]; 50 uM, read-out: % inhibition tyrosinase, ave): 100%
inhibition at 50 µM ([3]; at 50 µmol L^−1, read-out: tyrosinase inhibition): 100%
inhibition at 10 µg/mL ([3]; individual replicates, read-out: % inhibition tyrosinase, N1-N3): 52.4%
inhibition at 10 µg/mL [3, 11]: 44.4%
inhibition at 12.5 µg/mL ([3]; conc 12.5 ug/ml, individual replicates, read-out: % inhibition tyrosinase, N1-N3): 81.8%
inhibition at 12.5 µg/mL ([3]; conc 12.5 ug/ml, read-out: % inhibition tyrosinase, ave): 78.5%
inhibition at 15 µg/mL ([3]; conc 15 ug/ml, individual replicates, read-out: % inhibition tyrosinase, N1-N3): 86.3%
inhibition at 15 µg/mL ([3]; conc 15 ug/ml, read-out: % inhibition tyrosinase, ave): 84.2%

SMILES: O=C(O)/C=C/c1ccc(O)c(O)c1 [Caffeic acid, caffeic acid, reference compound]
% inhibition collagenase, ave ([1]; 140 uM): 30.4%
% inhibition collagenase, ave ([1]; 280 uM): 51.1%
% inhibition collagenase, ave ([1]; 560 uM): 72.8%
% inhibition collagenase, ave ([1]; conc 280 uM (14 mM is the stock sample solution)): 30.37%
% inhibition collagenase, N1-N3 ([1]; conc 14 mM, individual replicates): 37.46% and 22.54% and 31.12%
% inhibition collagenase, ave ([1]; conc 28 mM): 51.14%
% inhibition collagenase, N1-N3 ([1]; conc 28 mM, individual replicates): 50.5% and 50.77% and 52.14%
% inhibition collagenase, ave ([1]; conc 56 mM): 72.77%
% inhibition collagenase, N1-N3 ([1]; conc 56 mM, individual replicates): 71.84% and 74.23% and 72.24%
IC50 [1, 4]: 307 µM and 286 µM and 334 µM
IC50 [1, 5]: 309 ± 13.7 µM

% inhibition elastase, replicates 1-3 ([2]; 10 uM, individual replicates): 25.34% and 30.65%
inhibition at 10 µM ([2]; 10 uM, individual replicates, read-out: % inhibition elastase, replicates 1-3): 26.2%
inhibition at 10 µM ([2]; 10 uM, read-out: % inhibition elastase, ave): 27.4%
% inhibition elastase, replicates 1-3 ([2]; 30 uM, individual replicates): 46.86% and 46.62%
inhibition at 30 µM ([2]; 30 uM, individual replicates, read-out: % inhibition elastase, replicates 1-3): 48.1%
inhibition at 30 µM ([2]; 30 uM, read-out: % inhibition elastase, ave): 47.2%
% inhibition elastase, replicates 1-3 ([2]; 35 uM, individual replicates): 50.36% and 49.93%
inhibition at 35 µM ([2]; 35 uM, individual replicates, read-out: % inhibition elastase, replicates 1-3): 51.1%
inhibition at 35 µM ([2]; 35 uM, read-out: % inhibition elastase, ave): 50.5%
% inhibition elastase, replicates 1-3 ([2]; 40 uM, individual replicates): 53.85% and 54.07%
inhibition at 40 µM ([2]; 40 uM, individual replicates, read-out: % inhibition elastase, replicates 1-3): 53.2%
inhibition at 40 µM ([2]; 40 uM, read-out: % inhibition elastase, ave): 53.7%
% inhibition elastase, ave ([2]; 50 uM): 72.36%
% inhibition elastase, replicates 1-3 ([2]; 50 uM, individual replicates): 74.42% and 69.89%
inhibition at 50 µM ([2]; 50 uM, individual replicates, read-out: % inhibition elastase, replicates 1-3): 72.8%
inhibition at 50 µM ([2]; 50 uM, read-out: % inhibition elastase, ave): 72.4%
% inhibition elastase, ave ([2]; 100 uM): 87.51%
% inhibition elastase, replicates 1-3 ([2]; 100 uM, individual replicates): 89.73% and 85.61%
inhibition at 100 µM ([2]; 100 uM, individual replicates, read-out: % inhibition elastase, replicates 1-3): 87.2%
inhibition at 100 µM ([2]; 100 uM, read-out: % inhibition elastase, ave): 87.5%
inhibition at 100 µM ([2]; at 100 µmol L^−1, read-out: elastase inhibition): 80%
IC50 [2, 8]: 33.2 µM and 35.1 µM and 34.5 µM
IC50 [2, 9]: 34.3 ± 0.6 µM
SMILES: C[C@H]1[C@H](C)CC[C@]2(C(=O)O)CC[C@]3(C)C(=CC[C@@H]4[C@@]5(C)CC[C@H](O)C(C)(C)[C@@H]5CC[C@]43C)[C@H]12 [Ursolic acid, ursolic acid, reference compound]

SMILES: OC[C@H]1O[C@@H](Oc2ccc(O)cc2)[C@H](O)[C@@H](O)[C@@H]1O [β-Arbutin, β-arbutin, reference compound]
inhibition at 12.5 µg/mL ([3]; read-out: % inhibition tyrosinase, N1-N3, conc 12.5 ug/ml, individual replicates): 31.2%
inhibition at 15 µg/mL ([3]; read-out: % inhibition tyrosinase, N1-N3, conc 15 ug/ml, individual replicates): 36.9%
inhibition at 25 µg/mL ([3]; read-out: % inhibition tyrosinase, N1-N3, conc 25 ug/ml, individual replicates): 59.7%
inhibition at 30 µM ([3]; read-out: % inhibition tyrosinase, ave, 30 uM): 18.4%
inhibition at 40 µM ([3]; read-out: % inhibition tyrosinase, ave, 40 uM): 24.9%
inhibition at 46 µM ([3]; read-out: % inhibition tyrosinase, ave, 46 uM): 28.8%
inhibition at 50 µM ([3]; read-out: % inhibition tyrosinase, ave, 50 uM): 34.4%
inhibition at 92 µM ([3]; read-out: % inhibition tyrosinase, ave, 92 uM): 58.8%
inhibition at 12.5 µg/mL ([3]; read-out: % inhibition tyrosinase, ave, conc 12.5 ug/ml): 28.8%
inhibition at 15 µg/mL ([3]; read-out: % inhibition tyrosinase, ave, conc 15 ug/ml): 34.8%
inhibition at 25 µg/mL ([3]; read-out: % inhibition tyrosinase, ave, conc 25 ug/ml): 58.8%
inhibition at 30 µM ([3]; read-out: % inhibition tyrosinase, replicates 1-3, 30 uM, individual replicates): 18.7%
inhibition at 40 µM ([3]; read-out: % inhibition tyrosinase, replicates 1-3, 40 uM, individual replicates): 25.7%
inhibition at 46 µM ([3]; read-out: % inhibition tyrosinase, replicates 1-3, 46 uM, individual replicates): 31.2%
inhibition at 50 µM ([3]; read-out: % inhibition tyrosinase, replicates 1-3, 50 uM, individual replicates): 30.5%
inhibition at 92 µM ([3]; read-out: % inhibition tyrosinase, replicates 1-3, 92 uM, individual replicates): 59.7%
